Laboratory results as given in patent publication US6806269B1, “2-Amino-benzoxazinones for the treatment of herpes simplex virus” (G. D. Searle & Cop, priority 1999, dated 2004).
Where two headings read alike, the source gives them in different places.

Legend:
[1] = target: T1, HSV-1 protease (assemblin) (Human herpesvirus 1, UniProt P10210); test: Enzymatic assay for HSV-1 protease (assemblin) inhibition (FP assay / HPLC assay); assay type: biochemical
T1 construct: encoding residues 1-288 of HSV-1 UL26 open reading frame and 32 heterologous amino acid; 6xHis (N); made in house
Experimental: Enzymatic Assay for HSV-1 Protease (Assemblin) Inhibition
Assemblin protease activity was determined using fluorescence polarization (FP). The fluorescent substrate was biotin-gamma-aminobutyrate -[…]-DTAF, based on the HSV-1release cleavage site. […] A change in molecular size of fluorescent substrate molecule, which was increased using avidin as a reaction stop reagent, allowed cleavage to be measured by FP. Potential protease inhibitors were dissolved in DMF and then diluted 5-fold in assay buffer. […] The enzyme was diluted to 21.3 ug/mL in assay buffer (1M NaCitrate, 50 mM NaPhosphate, pH 7.4, 100mM NaCl, 20% glycerol, 2 mM TECP) and 48.5 uL were added to each well. Following a 30 minute incubation at room temperature, 10 uL of 62.5 ug/mL substrate were added. After about 90 minute incubation at room temperature, 50 uL of 2 mg/mL avidin in phosphate buffer (50 mM Naphosphate, 100 mM NaCl, pH 7.4) were added to each well. The plates were read by a fluorescence polarization plate reader. Inhibitor potency was determined by comparison with incubations lacking inhibitor.
Assays were performed with the peptide substrate H-His-Thr-Tyr-Leu-Gln-Ala-Ser-Glu-Lys-Phe-Lys-Met-Trp-Gly-NH2 (Bachem). This substrate is a HSV-1-amide UL26 Open Reading Frame (242-255) and is derived from the release site of HSV-1 protease. HSV-1protease cleaves between alanine and serine. The product […] was quantified on HPLC using fluorescence detection of tryptophan residue. Enzyme was diluted to 4.3 ug/mL in assay buffer (1 M NaCitrate, 50 mM NaPhosphate, pH 7.3, 100 mM NaCl, 20% glycerol, 2 mM TCEP) and 48.5 uL were added to the tubes. Potential protease inhibitors were dissolved in DMF and then diluted 10-fold in assay buffer. 6.5 uL of inhibitor solution were added to each tube. Following a 30-minute incubation at room temperature, 10 uL of substrate in phosphate buffer (50 mM Naphosphate, 100 mM NaCl, pH 7.4) were added to all tubes. The final concentration of the substrate in the reaction mixtures was 10 uM. After a 15-minute incubation at room temperature, assays were quenched using 50 uL of 50% TCA. Inhibitor potency was determined by comparison with incubations lacking inhibitor, which under these conditions gave about 20% cleavage of substrate.
Recombinant HSV-1 Protease
HSV-1 protease was purified from baculovirus expressing a DNA construction encoding residues 1-288 of HSV-1 UL26 open reading frame and 32 heterologous amino acid. The construction also encoded six additional histidine residues at the amino terminus of the protease. These additional histidine residues provided an affinity ligand by which the protein was purified using Ni-NTA agarose gel (Qiagen). The purified protease was stored in stock solution (20 mM HEPES buffer, pH 8.5, containing 20% (v/v) glycerol). This stock was diluted with assay buffer to adequate concentration of enzymatic assay.
A specific substrate was synthesized based on the cleavage specificity of HSV-1 protease at the “release site” of the assembly protein (DiIanni, C. L., et al., J. Biol. Chem. 268, 2048, (1993)). The assembly protein release site has the sequence, HTYLQA*SEKFKMWG. The substrate used was biotin-gamma -aminobutyrate-HTYLQA*SERFRIK-DTAF which was prepared by standard peptide synthetic methods such as that described in Bodansky and Bodansky, “The Practice of Peptide Synthesis” (1984), and was stored as a stock solution at 2.5 mg/mL in DMF. This was diluted to 62.5 ug/mL with phosphate buffer (50 mM Naphosphate, […], pH 7.4) just before use.
The substrate was HSV-1-amide UL 26 Open Reading Frame (242-255), obtained from Bachem (Product No. M-2160).
An assay buffer (1 M NaCitrate, 50 mM NaPhosphate, pH 7.4, 100 mM NaCl, 20% glycerol, 2 mM TCEP) was used to dilute stock solutions of enzyme and inhibitors.

HSV-1 = test: Antiviral assay: plaque reduction assay, HSV-1 in vero cells; assay type: cell-based, HSV-1 (vero cells, African green monkey kidney cell); details: Human alphaherpesvirus 1, Vero, 72 h, read-out: ANTIVIRUS EC50
Text: These complimentary assays tested the ability of a compound to inhibit the production of new virus and the toxicity of the compound to the host cells. It was important that both assays be performed simultaneously in order to compare the results directly since toxicity may indirectly reduce viral replication.
The antiviral assay was estimated by plaque reduction assay performed by following methods. 1×10^5 of vero cells (African green monkey kidney cell) in 48-well plates were over-night cultured and the medium of this culture was replaced with 200 μl of 2% FBS DMEM containing 2× the desired final cordon of test compounds or no compound as control. The cultures were added 50 μl of 2% FBS DMEM containing with about 50 plaque forming units of HSV-1and next 250 μl of 2% FBS DMEM containing 1% methylcellulose. These infected cultures were incubated at 37° C., 5% CO2 for 3 days until plaques was visible. The cells were fixed and stained simultaneously with 0.025% crystalviolet in 5% formalin solution and plaque were counted. The concentration of test compound which conferred 50% inhibition of plaque formation compared to no compound control was interpolated from the observed data and defined as IC50.

[2] = target: T2, Bovine pancreas α-chymotripsin (Bos taurus, UniProt P00766); test: Chymotripsin assay; assay type: biochemical; details: 50 μM compound; 30 minutes pre-incubation; read-out: INHIBITION AT 50 μM CHYMOTRYPSIN (%)
T2 construct: purchased Sigma type II; host or cells: bovine pancreas
Experimental: The chymotripsin assay was modified from the method of Delmar, et al. (Anal. Biochem. 99, 316-320 (1979)). Bovine pancreas α-chymotripsin(type II, Sigma) was dissolved in 0.001 N HCl at 1 mg/ml and further diluted 1/1000 in assay buffer (0.1 M Tris, pH 7.8 containing 0.1 M CaCl2) before use. 0.75 μl of test compound in DMF (or DMF alone), 50 μl of assay buffer and 50 μl of enzyme were added to 96 wells plates, mixed and pre-incubated for 30 minutes at ambient temperature. Reaction was initiated by addition of 50 μl of 0.2 mM N-succinyl-Ala-Ala-Pro-Phe-p-nitroanilide (Sigma; 2 mM in DMSO diluted 1/10 in assay buffer before use). The increase in absorbance at 405 nm was monitored for 3 minutes with BIO-RAD model 3550 microplate-reader.

[3] = target: T3, Human leukocyte elastase (HLE) (Homo sapiens, UniProt P08246); test: Human leukocyte elastase assay; assay type: biochemical; details: 50 μM compound; 30 minutes pre-incubation
T3 construct: purchased CALBIOCHEM
T3 sequence (P08246 30-267): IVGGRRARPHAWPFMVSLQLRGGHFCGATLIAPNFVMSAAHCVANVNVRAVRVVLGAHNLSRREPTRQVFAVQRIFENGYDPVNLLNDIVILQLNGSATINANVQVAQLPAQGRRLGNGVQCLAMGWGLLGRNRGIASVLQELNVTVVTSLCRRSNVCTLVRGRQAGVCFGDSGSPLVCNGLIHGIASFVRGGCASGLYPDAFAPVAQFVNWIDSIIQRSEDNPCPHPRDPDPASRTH
Experimental: Human Leukocyte Elastase Assay
Human leukocyte elastase (HLE) (CALBIOCHEM) was dissolved in saline at 1 mg/ml and further diluted 1/10 in assay buffer (0.2 M Tris, pH 8.0) before use.
0.75 μl of test compound in DMF (or DMF alone), 50 μl of assay buffer and 50 μl of enzyme were added to 96 well plate, mixed and pre-incubated for 30 minutes at ambient temperature. Reaction was initiated by addition of 50 μl of 2.5 mM methoxysuccinyl-Ala-Ala-Pro-Val-p-nitroanilide (Sigma; 25 mM in DMSO diluted 1/10 in assay buffer before use). The increase in absorbance at 405 nm was monitored for 3 min. with BIO-RAD model 3550 microplate reader.

[4] = recombinant HSV-1 protease, 30 minute pre-incubation at room temperature, FP or HPLC format not stated, read-out: ENZYME IC50

T1 sequence (P10210 1-288): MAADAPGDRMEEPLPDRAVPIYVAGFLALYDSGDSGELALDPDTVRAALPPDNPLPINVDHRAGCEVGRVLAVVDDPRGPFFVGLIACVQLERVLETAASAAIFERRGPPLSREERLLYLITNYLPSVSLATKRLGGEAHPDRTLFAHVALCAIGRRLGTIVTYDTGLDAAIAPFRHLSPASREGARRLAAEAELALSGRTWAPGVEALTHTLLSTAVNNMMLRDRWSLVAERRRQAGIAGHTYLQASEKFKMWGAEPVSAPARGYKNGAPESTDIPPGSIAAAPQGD

Structure (SMILES): CCN(CC)c1nc2cccc(C)c2c(=O)o1 [CC1, reference compound]
- IC50 [1, 4]: 20 µM

Structure (SMILES): Cc1cccc2nc(N(C)Cc3ccccc3)oc(=O)c12 [CC2, reference compound]
- EC50 (HSV-1): 7.5 µM
- IC50 [1, 4]: 3.2 µM
- inhibition at 50 µM [2]: 101%
- inhibition at 50 µM [3]: 101%

Structure (SMILES): Cc1cccc2nc(N(C)Cc3ccccn3)oc(=O)c12 [CC3, reference compound]
- EC50 (HSV-1): 48.9 µM
- IC50 [1, 4]: 3.2 µM
- inhibition at 50 µM [2]: 100%
- inhibition at 50 µM [3]: 100%

Structure (SMILES): Cc1c(Br)ccc2nc(N(C)Cc3ccccc3)oc(=O)c12 [CC4, reference compound]
- EC50 (HSV-1): 15 µM
- inhibition at 50 µM [2]: 102%
- inhibition at 50 µM [3]: 98%

Structure (SMILES): Cc1cccc2nc(N3CCN(C)CC3)oc(=O)c12 [CC5, reference compound]
- EC50 (HSV-1): > 50 µM
- IC50 [1]: 28 µM
- inhibition at 50 µM [2]: 98%
- inhibition at 50 µM [3]: 100%

Structure (SMILES): Cc1cccc2nc(N(C)CCN3CCOCC3)oc(=O)c12 [CC6, reference compound]
- EC50 (HSV-1): > 50 µM
- IC50 [1, 4]: 11.8 µM
- inhibition at 50 µM [2]: 97%
- inhibition at 50 µM [3]: 99%

Structure (SMILES): Cc1c(NC(=O)OC(C)(C)C)ccc2nc(N(C)Cc3ccccc3)oc(=O)c12 [Compound 1, 6-[[(1,1-Dimethylethoxy)carbonyl]amino]-5-methyl-2-[methyl(phenylmethyl)amino]-4H-3,1-benzoxazin-4-one]
- EC50 (HSV-1): 1.1 µM
- IC50 [1, 4]: 0.6 µM
- inhibition at 50 µM [2]: 13%
- inhibition at 50 µM [3]: 32%

Structure (SMILES): Cc1c(NC(=O)c2ccccc2)ccc2nc(N(C)Cc3ccccc3)oc(=O)c12 [Compound 2, 6-(benzoylamino)-5-methyl-2-[methyl(phenylmethyl)amino]-4H-3,1-benzoxazin-4-one]
- EC50 (HSV-1): 4.6 µM
- IC50 [1, 4]: 0.7 µM
- inhibition at 50 µM [2]: 7%
- inhibition at 50 µM [3]: 26%

Structure (SMILES): COc1ccc(CN(C)c2nc3ccc(NC(=O)OC(C)(C)C)c(C)c3c(=O)o2)cc1 [Compound 3, 6-[[(1,1-Dimethylethoxy)carbonyl]amino]-5-methyl-2-[methyl[(4-methoxyphenyl)methyl]amino]4H-3,1-benzoxazin-4-one]
- EC50 (HSV-1): 0.16 µM
- IC50 [1, 4]: 0.6 µM
- inhibition at 50 µM [2]: 0%
- inhibition at 50 µM [3]: 0%

Structure (SMILES): Cc1c(NC(=O)OC(C)(C)C)ccc2nc(N(C)Cc3ccc(N(C)C)cc3)oc(=O)c12 [Compound 4, 6-[[(1,1-Dimethylethoxy)carbonyl]amino]-5-methyl-2-[[[4-(dimethylamino)phenyl]methyl]methylamino]-4H-3,1-benzoxazin-4-one]
- EC50 (HSV-1): 0.05 µM
- IC50 [1, 4]: 1.3 µM
- inhibition at 50 µM [2]: 0%
- inhibition at 50 µM [3]: 0%

Structure (SMILES): Cc1c(NC(=O)OC(C)(C)C)ccc2nc(N(C)CCc3c[nH]c4ccccc34)oc(=O)c12 [Compound 5, 6-[[(1-Dimethylethoxy)carbonyl]amino]-5-methyl-2-[methyl[2-(3-indolyl)ethyl]amino]-4H-3,1-benzoxazin-4-one]
- EC50 (HSV-1): 3.2 µM
- IC50 [1, 4]: 3.5 µM
- inhibition at 50 µM [2]: 13.1%
- inhibition at 50 µM [3]: 0%

Structure (SMILES): Cc1c(NC(=O)OC(C)(C)C)ccc2nc(N3CCOCC3)oc(=O)c12 [Compound 6, 6-[[(1,1-Dimethylethoxy)carbonyl]amino]-5-methyl-2-(4-morpholyl)-4H-3,1-benzoxazin-4-one]
- EC50 (HSV-1): 2.9 µM
- IC50 [1, 4]: 3.7 µM
- inhibition at 50 µM [2]: 0%
- inhibition at 50 µM [3]: 0%

Structure (SMILES): C=CCN(C)c1nc2ccc(NC(=O)OC(C)(C)C)c(C)c2c(=O)o1 [Compound 7, 6-[[(1,1-Dimethylethoxy)carbonyl]amino]-5-methyl-2-[allyl(methyl)amino]-4H-3,1-benzoxazin-4-one]
- EC50 (HSV-1): 4.1 µM
- IC50 [1, 4]: 3.4 µM
- inhibition at 50 µM [2]: 6.9%
- inhibition at 50 µM [3]: 0%

Structure (SMILES): Cc1c(NC(=O)OC(C)(C)C)ccc2nc(N3CC=CCC3)oc(=O)c12 [Compound 8, 6-[[(1,1-Dimethylethoxy)carbonyl]amino]-5-methyl-2-[1-(1,2,3,6-tetrahydro-pyridyl)]-4H-3,1-benzoxazin-4-one]
- EC50 (HSV-1): 3.3 µM
- IC50 [1, 4]: 5 µM
- inhibition at 50 µM [2]: 0%
- inhibition at 50 µM [3]: 0%

Structure (SMILES): Cc1c(NC(=O)OC(C)(C)C)ccc2nc(N(C)C(C)C)oc(=O)c12 [Compound 10, 6-[[(1,1-Dimethylethoxy)carbonyl]amino]-5-methyl-2-[isopropyl(methyl)amino]-4H-3,1-benzoxazin-4-one]
- EC50 (HSV-1): 3.3 µM
- IC50 [1, 4]: 7.8 µM
- inhibition at 50 µM [2]: 0%
- inhibition at 50 µM [3]: 0%

Structure (SMILES): Cc1c(NC(=O)OC(C)(C)C)ccc2nc(N3CCCC4CCCCC43)oc(=O)c12 (stereo not drawn) [Compound 11, 6-[[(1,1-Dimethylethoxy)carbonyl]amino]-5-methyl-2-(decahydroquinolyl)-4H-3,1benzoxazin-4-one]
- EC50 (HSV-1): 2.8 µM
- IC50 [1, 4]: 5.5 µM
- inhibition at 50 µM [2]: 0%
- inhibition at 50 µM [3]: 0%
